The values below come from patent US20210078988A1, “MODULATORS OF INDOLEAMINE 2,3-DIOXYGENASE” (GLAXOSMITHKLINE INTELLECTUAL PROPERTY DEVELOPMENT LIMITED, priority 2017, published 2021).

The target in the assay is T1, indoleamine 2, 3-dioxygenase (IDO1) (Homo sapiens, UniProt P14902).
T1 construct: human peripheral blood mononuclear cells (PBMC) (PB003F; host or cells: human PBMC stimulated with IFN-gamma and LPS
T1 sequence (P14902 whole entry): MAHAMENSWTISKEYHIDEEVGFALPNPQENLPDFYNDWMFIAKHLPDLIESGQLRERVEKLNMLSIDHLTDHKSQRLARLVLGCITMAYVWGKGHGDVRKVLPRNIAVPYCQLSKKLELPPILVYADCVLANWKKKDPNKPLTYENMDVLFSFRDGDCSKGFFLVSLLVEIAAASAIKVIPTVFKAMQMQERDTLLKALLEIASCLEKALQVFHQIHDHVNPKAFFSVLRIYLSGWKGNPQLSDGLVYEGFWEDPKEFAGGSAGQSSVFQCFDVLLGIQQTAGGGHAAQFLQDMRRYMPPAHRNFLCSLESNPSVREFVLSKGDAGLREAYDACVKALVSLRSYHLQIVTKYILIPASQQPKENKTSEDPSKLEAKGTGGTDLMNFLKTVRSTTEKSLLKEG
Description: PBMC IDO1 assay (kynurenine detection via mass spectrometry). Conditions: human PBMC stimulated with IFN-γ and LPS, 2 days, kynurenine by mass spectrometry; read-out: IDO1 PBMC pIC50 (converted). Format: cell-based. In outline: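 Kynurenine output, read by RapidFire mass spectrometry as a ratio to internal standard, reflected IDO1 activity in human PBMCs induced with 100 ng/ml IFN-γ plus 50 ng/ml LPS and dosed with compound (11 points, 3-fold) over 2 days. Cytotoxicity was tracked by CellTiter-Glo; XC50 values came from Hill-slope fits.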
Turning to `O=C(NC(CC1CCN(C(=O)OC2CCCCC2)CC1)c1ccccc1)c1ccc(Cl)cc1` (stereo not drawn) [Example 150, cyclohexyl 4-(2-(4-chlorobenzamido)-2-phenylethyl)piperidine-1-carboxylate], the IC50 is 79.4 nM. With `CC(C)(C)OC(=O)N1CCC(CC(NC(=O)c2ccc(Cl)cc2)C2CCCC2)CC1` (stereo not drawn) [Example 151, tert-butyl 4-(2-(4-chlorobenzamido)-2-cyclopentylethyl)piperidine-1-carboxylate] the figure was 79.4 nM; with `CC(C)(C)OC(=O)N1CCC(CC(NC(=O)c2ccc(F)cc2)C2CCCCC2)CC1` (stereo not drawn) [Example 152, tert-butyl 4-(2-cyclohexyl-2-(4-fluorobenzamido)ethyl)piperidine-1-carboxylate], 79.4 nM; with `Cc1cc(C(=O)NC(CC2CCN(C(=O)OC(C)(C)C)CC2)c2ccccc2)cs1` (stereo not drawn) [Example 153, tert-butyl 4-(2-(5-methylthiophene-3-carboxamido)-2-phenylethyl)piperidine-1-carboxylate], 79.4 nM. For `CCCC(=O)N1CCC(CC(NC(=O)c2ccc(Cl)cc2)c2ccccc2)CC1` (stereo not drawn) [Example 154, N-(2-(1-butyrylpiperidin-4-yl)-1-phenylethyl)-4-chlorobenzamide] the value was 79.4 nM. With `C=CC[C@@H](CC1CCN(C(=O)OC(C)(C)C)CC1)NC(=O)c1ccc(Cl)s1` [Example 155, (S)-tert-butyl 4-(2-(5-chlorothiophene-2-carboxamido)pent-4-en-1-yl)piperidine-1-carboxylate] the figure was 79.4 nM. For the compound `Cc1ccc(C(=O)NC(CC2CCN(C(=O)c3ccccc3)CC2)c2ccccc2)s1` (stereo not drawn) [Example 156, N-(2-(1-benzoylpiperidin-4-yl)-1-phenylethyl)-5-methylthiophene-2-carboxamide], the IC50 was 79.4 nM. For `COc1ccc(C(=O)NC(CC2CCN(C(=O)OC(C)(C)C)CC2)c2ccccc2)cn1` (stereo not drawn) [Example 157, tert-butyl 4-(2-(6-methoxynicotinamido)-2-phenylethyl)piperidine-1-carboxylate] the value was 100 nM; for `CCOC(=O)N1CCC(CC(NC(=O)c2ccc(OC)nc2)C2CC2)CC1` (stereo not drawn) [Example 158, ethyl 4-(2-cyclopropyl-2-(6-methoxynicotinamido)ethyl)piperidine-1-carboxylate], 100 nM. For `CC(C)(C)OC(=O)N1CCC(CC(NC(=O)c2ccsc2)c2ccccc2)CC1` (stereo not drawn) [Example 159, tert-butyl 4-(2-phenyl-2-(thiophene-3-carboxamido)ethyl)piperidine-1-carboxylate] the value was 100 nM; for `CC(C)(C)OC(=O)N1CCC(CC(NC(=O)c2ccc(F)cc2)c2ccc(OCc3ccccc3)nc2)CC1` (stereo not drawn) [Example 160, tert-butyl 4-(2-(6-(benzyloxy)pyridin-3-yl)-2-(4-fluorobenzamido)ethyl)piperidine-1-carboxylate], 100 nM. For `COc1cc(C(=O)NC(CC2CCN(C(=O)OC(C)(C)C)CC2)c2ccccc2)ccc1Cl` (stereo not drawn) [Example 161, tert-butyl 4-(2-(4-chloro-3-methoxybenzamido)-2-phenylethyl)piperidine-1-carboxylate] the value was 100 nM.

With `CC(C)(C)OC(=O)N1CCC(CC(NC(=O)c2ccc(C#N)c(F)c2)c2ccccc2)CC1` (stereo not drawn) [Example 162, tert-butyl 4-(2-(4-cyano-3-fluorobenzamido)-2-phenylethyl)piperidine-1-carboxylate], the IC50 was 100 nM.

For `CC(C)CC(=O)N1CCC(CC(NC(=O)c2ccc(Cl)cc2)c2ccccc2)CC1` (stereo not drawn) [Example 163, 4-chloro-N-(2-(1-(3-methylbutanoyl)piperidin-4-yl)-1-phenylethyl)benzamide], the IC50 was 100 nM. Regarding `CC(C)(C)CC(=O)N1CCC(CC(NC(=O)c2ccc(Cl)cc2)c2ccccc2)CC1` (stereo not drawn) [Example 164, 4-chloro-N-(2-(1-(3,3-dimethylbutanoyl)piperidin-4-yl)-1-phenylethyl)benzamide], the IC50 is 100 nM. Take `CC(C)(C)NC(=O)N1CCC(CC(NC(=O)c2ccc(Cl)cc2)c2ccccc2)CC1` (stereo not drawn) [Example 165, N-(tert-butyl)-4-(2-(4-chlorobenzamido)-2-phenylethyl)piperidine-1-carboxamide]: the IC50 was 100 nM. With `CC(C)CS(=O)(=O)N1CCC(CC(NC(=O)c2ccc(Cl)cc2)c2ccccc2)CC1` (stereo not drawn) [Example 166, 4-chloro-N-(2-(1-(isobutylsulfonyl)piperidin-4-yl)-1-phenylethyl)benzamide] the figure was 100 nM; with `CC#CCOc1ccc(C(=O)NC(CC2CCN(C(=O)OC(C)(C)C)CC2)c2ccccc2)cc1F` (stereo not drawn) [Example 167, tert-butyl 4-(2-(4-(but-2-yn-1-yloxy)-3-fluorobenzamido)-2-phenylethyl)piperidine-1-carboxylate], 100 nM. With `CC(C)(C)OC(=O)N1CCC(CC(NC(=O)c2cc(Cl)cs2)c2ccccc2)CC1` (stereo not drawn) [Example 168, tert-butyl 4-(2-(4-chlorothiophene-2-carboxamido)-2-phenylethyl)piperidine-1-carboxylate] the figure was 100 nM; with `CCC(CC)c1nc(C(CC2CCN(C(=O)OC(C)(C)C)CC2)NC(=O)c2ccc(F)cc2)no1` (stereo not drawn) [Example 169, tert-butyl 4-(2-(4-fluorobenzamido)-2-(5-(pentan-3-yl)-1,2,4-oxadiazol-3-yl)ethyl)piperidine-1-carboxylate], 100 nM; with `CC(C)(C)OC(=O)N1CCC(C[C@H](Nc2ncc(-c3ccccc3)o2)C2CC2)CC1` [Example 170, (S)-tert-butyl 4-(2-cyclopropyl-2-((5-phenyloxazol-2-yl)amino)ethyl)piperidine-1-carboxylate], 100 nM. With `CCCNc1nnc(C(CC2CCN(C(=O)OC(C)(C)C)CC2)NC(=O)c2ccc(Cl)s2)o1` (stereo not drawn) [Example 171, tert-butyl 4-(2-(5-chlorothiophene-2-carboxamido)-2-(5-(propylamino)-1,3,4-oxadiazol-2-yl)ethyl)piperidine-1-carboxylate] the figure was 100 nM; with `COC(=O)N1CCC(CC(NC(=O)c2ccc(F)cc2)c2ccccc2)CC1` (stereo not drawn) [Example 173, methyl 4-(2-(4-fluorobenzamido)-2-phenylethyl)piperidine-1-carboxylate], 126 nM. As to `Cc1ccc(C(CC2CCN(C(=O)OC(C)(C)C)CC2)NC(=O)c2ccc(F)cc2)cn1` (stereo not drawn) [Example 174, tert-butyl 4-(2-(4-fluorobenzamido)-2-(6-methylpyridin-3-yl)ethyl)piperidine-1-carboxylate], the IC50 was 126 nM.

As to `CC(C)(C)OC(=O)N1CCC(CC(NC(=O)c2ccc3c(c2)OCO3)c2ccccc2)CC1` (stereo not drawn) [Example 175, tert-butyl 4-(2-(benzo[d][1,3]dioxole-5-carboxamido)-2-phenylethyl)piperidine-1-carboxylate], the IC50 was 126 nM.

In the case of `CC(C)(C)OC(=O)N1CCC(CC(NC(=O)c2ccc(F)cc2)c2ccc(=O)n(Cc3ccccc3)c2)CC1` (stereo not drawn) [Example 176, tert-butyl 4-(2-(1-benzyl-6-oxo-1,6-dihydropyridin-3-yl)-2-(4-fluorobenzamido)ethyl)piperidine-1-carboxylate], the IC50 was 126 nM. For `CCOC(=O)N1CCC(C[C@@H](NC(=O)c2ccc(Cl)s2)C2CC2)CC1` [Example 177, (R)-ethyl 4-(2-(5-chlorothiophene-2-carboxamido)-2-cyclopropylethyl)piperdine-1-carboxylate] the value was 126 nM; for `CSc1ccc(C(=O)NC(CC2CCN(C(=O)OC(C)(C)C)CC2)c2ccccc2)cc1` (stereo not drawn) [Example 178, tert-butyl 4-(2-(4-(methylthio)benzamido)-2-phenylethyl)piperidine-1-carboxylate], 126 nM. With `Cc1csc(C(=O)NC(CC2CCN(C(=O)OC(C)(C)C)CC2)c2ccccc2)c1` (stereo not drawn) [Example 179, tert-butyl 4-(2-(4-methylthiophene-2-carboxamido)-2-phenylethyl)piperidine-1-carboxylate] the figure was 126 nM. Take `C=Cc1ccc(C(=O)NC(CC2CCN(C(=O)OC(C)(C)C)CC2)c2ccccc2)s1` (stereo not drawn) [Example 180, tert-butyl 4-(2-phenyl-2-(5-vinylthiophene-2-carboxamido)ethyl)piperidine-1-carboxylate]: the IC50 is 126 nM.

For the compound `CC(C)(C)OC(=O)N1CCC(CC(NC(=O)c2cccc3cc[nH]c23)c2ccccc2)CC1` (stereo not drawn) [Example 181, tert-butyl 4-(2-(1H-indole-7-carboxamido)-2-phenylethyl)piperidine-1-carboxylate], the IC50 was 158 nM. With `CC(C)(C)OC(=O)N1CCC(CC(NC(=O)c2cc3ccccc3s2)c2ccccc2)CC1` (stereo not drawn) [Example 182, tert-butyl 4-(2-(benzo[b]thiophene-2-carboxamido)-2-phenylethyl)piperidine-1-carboxylate] the figure was 158 nM.

Take `COc1ccc([C@@H](CC2CCN(C(=O)OC(C)(C)C)CC2)NC(=O)c2ccc(F)cc2)cn1` [Example 183, (R)-tert-butyl 4-(2-(4-fluorobenzamido)-2-(6-methoxypyridin-3-yl)ethyl)piperidine-1-carboxylate]: the IC50 was 158 nM. As to `CC(C)NC(=O)N1CCC(CC(NC(=O)c2ccc(Cl)cc2)c2ccccc2)CC1` (stereo not drawn) [Example 184, 4-(2-(4-chlorobenzamido)-2-phenylethyl)-N-isopropylpiperidine-1-carboxamide], the IC50 was 158 nM. For `O=C(NC(CC1CCN(C(=O)OC2COC2)CC1)c1ccccc1)c1ccc(Cl)cc1` (stereo not drawn) [Example 185, oxetan-3-yl 4-(2-(4-chlorobenzamido)-2-phenylethyl)piperidine-1-carboxylate] the value was 158 nM; for `O=C(NC(CC1CCN(C(=O)OC2CCOCC2)CC1)c1ccccc1)c1ccc(Cl)cc1` (stereo not drawn) [Example 186, tetrahydro-2H-pyran-4-yl 4-(2-(4-chlorobenzamido)-2-phenylethyl)piperidine-1-carboxylate], 158 nM.
